Like-named read-outs stand apart in the source and are kept apart here.
Key:
[1] = system: MDA-MB-361.1 xenografts; assay: nonclinical PK/PD model of tumor growth inhibition with predicted human PK; conditions: predicted human PK and nonclinical PD data, preliminary
Text: A nonclinical PK/PD model of tumor growth inhibition was developed using the indirect response model (Jusko W J. “Pharmacodynamics of chemotherapeutic effects: dose-time-response relationships for phase-nonspecific agents”, J Pharm Sci (1971) 60:892-5) to fit exposure and growth inhibition data based on four sets of experiments examining varying schedules and doses in the MDA-MB-361.1 xenografts. The PK/PD model was then used to predict minimal exposure needed to achieve 50% tumor growth inhibition, using the predicted human PK data and the nonclinical PD data. […] On the basis of MLP allometric scaling, a daily dose of approximately 18 mg may achieve this exposure. Dose escalation will continue until the MTD, even if 1.7 μM·hr exposure is surpassed and well tolerated, since it is well established that tumor xenograft models are not absolutely predictive of clinical response (Sausville and Burger 2006).

[2] = target: mTOR (Homo sapiens, UniProt P42345); assay: biochemical
[3] = in vivo
Procedure: (§1) Patients with a history of Type 1 or 2 diabetes mellitus requiring regular medication were excluded. GDC-0980 was administered on Day 1, followed by 1 week of washout to evaluate single-dose PK and PD markers. GDC-0980 was then dosed QD for either 21 days or 28 days every 28-day cycle. Tumor assessments were performed after Cycles 1, 2, and then every 2 cycles using RECIST guidelines. Optional FDG-PET was obtained between Days 22-28 and Days 50-57.
(§2) Fasted blood glucose & insulin were monitored at clinical visits (pre-dose & 2 hrs post-dose). Dosing with GDC-0980 was allowed with =G2 blood glucose with appropriate monitoring, i.e., additional monitoring in clinic and fingerstick glucose testing at home.
(§3) Safety Analyses: All patients who receive any amount of GDC-0980 therapy will be included in the safety analyses. Safety will be assessed through summaries of adverse events, deaths, and changes in laboratory test results. All adverse events for all patients will be collected for the safety dataset. Verbatim descriptions of adverse events will be mapped to thesaurus terms. All recorded adverse event data will be listed by study site, patient, and cycle. All adverse events occurring on or after the first treatment will be summarized by mapped term, appropriate thesaurus levels, and NCI CTCAE, v3.0 toxicity grade. All serious adverse events will be listed separately and summarized. In addition, the incidence of symptomatic CHF and/or LVEF <40% will be summarized. Deaths reported during the study treatment period and those reported during follow-up after patient treatment discontinuation will be summarized. Laboratory data will be summarized by grade using the NCI CTCAE, v3.0 toxicity grade. Changes in LVEF over time will be summarized and listed by scheduled measurement time. The occurrence of antibodies to GDC-0980 will be listed.

[4] = target: hERG (Homo sapiens, UniProt Q12809); assay: hERG activity
Chain of hERG (Q12809 whole entry): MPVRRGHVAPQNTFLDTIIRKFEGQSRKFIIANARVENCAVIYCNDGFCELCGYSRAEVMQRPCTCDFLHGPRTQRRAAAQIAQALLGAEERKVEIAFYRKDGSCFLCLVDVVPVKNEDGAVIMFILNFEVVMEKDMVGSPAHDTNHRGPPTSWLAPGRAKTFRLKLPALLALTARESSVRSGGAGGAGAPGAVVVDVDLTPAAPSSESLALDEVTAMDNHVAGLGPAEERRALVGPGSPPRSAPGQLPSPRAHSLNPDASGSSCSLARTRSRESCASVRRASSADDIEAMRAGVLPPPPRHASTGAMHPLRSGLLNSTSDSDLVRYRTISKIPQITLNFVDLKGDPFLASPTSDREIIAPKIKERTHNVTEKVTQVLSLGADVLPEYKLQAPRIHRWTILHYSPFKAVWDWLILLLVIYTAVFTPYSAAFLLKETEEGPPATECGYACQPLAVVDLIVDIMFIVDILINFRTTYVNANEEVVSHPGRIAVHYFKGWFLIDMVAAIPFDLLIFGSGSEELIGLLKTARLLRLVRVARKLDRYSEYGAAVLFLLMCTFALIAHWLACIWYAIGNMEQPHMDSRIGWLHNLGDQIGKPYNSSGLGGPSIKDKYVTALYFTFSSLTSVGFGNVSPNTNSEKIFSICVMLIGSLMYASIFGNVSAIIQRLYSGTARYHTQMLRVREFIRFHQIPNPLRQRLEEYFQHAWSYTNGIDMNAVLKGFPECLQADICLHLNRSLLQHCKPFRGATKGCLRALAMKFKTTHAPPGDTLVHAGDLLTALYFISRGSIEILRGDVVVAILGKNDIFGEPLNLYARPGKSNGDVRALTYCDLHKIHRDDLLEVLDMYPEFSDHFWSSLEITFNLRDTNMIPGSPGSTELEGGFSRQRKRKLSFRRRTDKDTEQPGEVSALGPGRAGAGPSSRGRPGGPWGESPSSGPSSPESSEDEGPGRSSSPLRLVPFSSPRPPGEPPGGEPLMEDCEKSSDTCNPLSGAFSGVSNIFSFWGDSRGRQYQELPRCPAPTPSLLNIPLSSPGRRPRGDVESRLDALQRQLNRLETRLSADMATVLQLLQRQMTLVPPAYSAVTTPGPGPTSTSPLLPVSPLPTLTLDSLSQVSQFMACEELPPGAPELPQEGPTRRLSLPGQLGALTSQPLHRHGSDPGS

[5] = stability in human microsomes; format: in vitro ADME
[6] = clearance in rodents; conditions: in vivo
[7] = system: pAKT (S473) in PRP; assay: pAKT in platelet-rich plasma (MSD assay), Phase I; format: in vivo, human
Procedure: pAKT in PRP: Total AKT and pAKT (S473) in PRP were measured by Meso Scale Discovery (MSD) assay, and the percent change in pAKT relative to baseline was calculated.

[8] = clearance in dogs; conditions: dog, in vivo
[9] = pharmacokinetics after a single oral dose (species not given); format: in vivo; conditions: species not stated
[10] = system: MDA-MB-361.1 breast cancer xenograft; assay: MDA-MB-361.1 breast cancer xenograft model; format: in vivo; conditions: QD
[11] = system: solid tumors; assay: Phase I best RECIST response and time on study, all enrolled patients; conditions: peritoneal mesothelioma and adrenal cancer patients
Procedure: (§4) Tumor assessments (CT and/or magnetic resonance imaging [MRI] scans) are performed approximately every 6 weeks irrespective of dose delays, interruptions, or reductions. Bone and brain scans (either CT or MRI) may be performed at baseline and if clinically indicated during the study. Patient management decisions were made based on tumor assessments performed by investigators. The primary study endpoints related to response were determined by an independent radiologic review of patient scans, with assessments based on investigator reporting being secondary. If each non-target lesion cannot be assessed at a follow-up tumor assessment timepoint, patients may still be considered evaluable for timepoint response as long as all target lesions are measured. Patients with non-target lesions that were not assessed at a timepoint were assessed as having a partial response, stable disease, or progressive disease. All lesions, target and non-target, were assessed before a response was considered confirmed. To reduce the frequency of unevaluable non-target lesions, bone lesions visible on baseline CT scan as non-target lesion(s) for follow-up, were compared with bone lesions identified on the baseline bone scan where possible if lesions are not visible on both modalities or as easily and reproducibly assessed. […]

[12] = system: MCF7-neo/HER2 cell line; assay: MCF7-neo/HER2 cell line IC50; format: cell-based
[13] = system: adrenal cortical cancer; assay: Phase I tumor response by RECIST, adrenal cortical cancer patient; conditions: person, 40 mg QD, 28/28 day schedule
Procedure: as §4

[14] = stability in human hepatocytes; format: in vitro ADME
[15] = Phase I clinical pharmacokinetics (plasma, LC-MS/MS); format: in vivo, human; conditions: for AUC(0-t): oral, individual patient, read-out: AUC0-24 h
Procedure: For Cycle 1 of the Phase I study, a single dose of GDC-0980 is administered to patients on Day 1 in a clinical setting that can accommodate frequent blood draws over a period of up to 48 hours after the dose is administered. Daily dosing will begin on Day 8 and continue for 21 days (Days 8-28), followed by a 7-day off-drug observation period (Days 29-35). Subsequent cycles will be 28 days in length (21 days of daily dosing followed by a 7-day observation period). Additional cohorts may be added to examine the tolerability of a 28-day dosing schedule with no observation period after the MTD is […] defined for the 21-day dosing schedule. GDC-0980 should be taken on an empty stomach (fasting) in the morning, unless otherwise instructed. For all patients Days 1 and 15 (PK sampling days), patients should be fasted overnight (at least 8-10 hours) prior to their dose on those days. On other days, patients should avoid consuming anything but water for 1 hour before and 2 hours after GDC-0980 administration. Each dose should be taken with a minimum of 3-4 ounces of water. […] PK: Plasma GDC-0980 concentrations were assayed by LC-MS/MS (Tandem Labs, Inc., Salt Lake City, Utah) with LLOQ 0.5 ng/mL and analyzed using noncompartmental analysis.

[16] = system: mesothelioma; assay: Phase I tumor response by RECIST, mesothelioma patients; conditions: person; for decrease in target lesions by RECIST: 21/28 day schedule
Procedure: Tumor assessments (CT and/or magnetic resonance imaging [MRI] scans) are performed approximately every 6 weeks irrespective of dose delays, interruptions, or reductions. Bone and brain scans (either CT or MRI) may be performed at baseline and if clinically indicated during the study. Patient management decisions were made based on tumor assessments performed by investigators. The primary study endpoints related to response were determined by an independent radiologic review of patient scans, with assessments based on investigator reporting being secondary. If each non-target lesion cannot be assessed at a follow-up tumor assessment timepoint, patients may still be considered evaluable for timepoint response as long as all target lesions are measured. Patients with non-target lesions that were not assessed at a timepoint were assessed as having a partial response, stable disease, or progressive disease. All lesions, target and non-target, were assessed before a response was considered confirmed. To reduce the frequency of unevaluable non-target lesions, bone lesions visible on baseline CT scan as non-target lesion(s) for follow-up, were compared with bone lesions identified on the baseline bone scan where possible if lesions are not visible on both modalities or as easily and reproducibly assessed.
Tumor assessments were performed after Cycles 1, 2, and then every 2 cycles using RECIST guidelines. Optional FDG-PET was obtained between Days 22-28 and Days 50-57.

[17] = Phase I safety and tolerability
Procedure: as §1, §2, §3

[18] = human, plasma, patients, single oral dose

In the case of `Cc1c(CN2CCN(C(=O)[C@H](C)O)CC2)sc2c(N3CCOCC3)nc(-c3cnc(N)nc3)nc12` [GDC-0980, (S)-1-(4-((2-(2-aminopyrimidin-5-yl)-7-methyl-4-morpholinothieno[3,2-d]pyrimidin-6-yl)methyl)piperazin-1-yl)-2-hydroxypropan-1-one], the “minimal exposure (AUC) needed to achieve 50% tumor growth inhibition” value [1] is reported as “approximately 1.7 μM·hr”, the Ki [2] is reported as 0.0173 µM and the “patients with increased blood glucose” value ([3]; human) is reported as 83.3%. The “drug-related AEs that occurred in =10% of patients” value [3] was “fatigue, diarrhea, rash, nausea, decreased appetite, mucositis, hyperglycemia, vomiting, pruritus, GERD (Gastroesophageal reflux disease), and constipation”, the “number of patients with G3 increased blood glucose” value [3] was “Six” and the IC50 [4] was over 100 µM. For the same molecule, the “stability in human microsomes” value [5] was “stable”, the clearance [6] was 60 mL/min/kg and the “decrease in pAKT in PRP” value ([7]; doses of 16 mg) was 90%. The “time for which significant inhibition of pAKT was maintained” value ([7]; doses of 50 mg) was 24 hours, the clearance [8] was 12 mL/min/kg and the half-life ([9]; in vivo, read-out: terminal half-life) was 6 to 18 h. The “dose dependence of AUC and Cmax” value [9] was “dose-proportional increases”, the “minimum dose producing significant growth inhibition” value [10] was 1.0 mg/kg and the “number of patients still on study after a year” value [11] was 2. The IC50 [12] was 0.32 µM, the “decrease in target lesions by RECIST” value ([13]; after 3 weeks of treatment in Cycle 2) was 39% and the “decrease in target lesions by RECIST” value ([13]; end of Cycle 1) was 22%. The “stability in human hepatocytes” value [14] was “stable”, the AUC(0-t) ([15]; human, plasma, 8 mg QD, 21/28 day schedule) was about 0.4 µM·h and the AUC(0-t) ([15]; human, plasma, 32 mg QD, 21/28 day schedule) was about 4.4 µM·h. It also gave an AUC(0-t) ([15]; human, plasma, 40 mg QD, 28/28 day schedule) of about 4.1 µM·h, an AUC(0-t) ([15]; human, plasma, 50 mg QD, 21/28 day schedule) of about 3 µM·h and a Tmax [15, 18] of about 2 h. For the same molecule, the half-life [15, 18] was 6 to 18 h, the “dose dependence of AUC and Cmax” value ([15]; patients, single oral dose) was “dose-proportional increases” and the “time on study before progression of disease” value ([16]; epitheloid mesothelioma, 8 mg QD, 21/28) was “about 4.5 months”. For the same molecule, the “decrease in target lesions by RECIST” value ([16]; epitheloid mesothelioma, PIK3CA R88Q, 8 mg QD, end of Cycle 2) was 26%, the “decrease in target lesions by RECIST” value ([16]; epitheloid pleural mesothelioma, 50 mg QD, end of Cycles 1 and 2) was 26% and the “decrease in target lesions by RECIST” value ([16]; peritoneal mesothelioma, 32 mg QD, end of Cycle 6) was 28%. For the same molecule, the “dose at which the MTD was exceeded” value ([17]; QD, 21/28-day schedule) was 70 mg and the “G5 adverse event considered related to GDC-0980” value ([17]; metastatic colorectal cancer patient, 50 mg QD, about 1 week after starting Cycle 2) was “G5 adverse event of colitis”.
